Entries after “also recorded” stand apart in the source; their conditions may differ. Values belong to the molecule of their own block, whether it stands above or below them.
Tests used:
[1] = tested on: MDA-MB-231 “triple negative” breast cancer cells; test: Cytotoxicity (cell viability) on MDA-MB-231 cells; type: cell-based; conditions: MDA-MB-231 (breast cancer cells)
U87-MG cells = test: Cytotoxicity (cell viability) on U87-MG cells; type: cell-based; conditions: U87-MG cells (glioblastoma)
HSA = HSA (Homo sapiens, UniProt P02768); test: Covalent binding / reaction of cyanines with HSA (LC/MS, ESI MS, NIR-fluorescent gel); conditions: HEPES buffer pH 7.4, 37° C.
Procedure: FIGS. 33A to 33D show kinetics of a, 1, c, 4, d, 5; e, 6 in 1 M HEPES buffer pH 7.4. […] The kinetics was examined on C, 18 column using Agilent 1200 series LC/MS at 600 nm.
FIGS. 34A and 34B show mass spectra of a, free HSA and b, 1 bound to HSA. HSA: 1 (2.5:1); buffer 1 M HEPES.
In a control experiment, human serum albumin (HSA) was reacted with 2.5 equivalents of 1-Cl at 37° C. in 1 M HEPES buffer. This 1-Cl:albumin molar ratio was selected because it is approximately that used in cell culture experiments to probe uptake of this dye.
To test this assertion the experimental design was modified in the following way.

[2] = tested on: U87-MG glioblastoma cells; test: Organelle localization of the fluors (confocal imaging); type: cell-based, human; conditions: 37° C., DMEM/F12 with 10% FBS pH 7.4

Sequence of HSA (P02768 25-609): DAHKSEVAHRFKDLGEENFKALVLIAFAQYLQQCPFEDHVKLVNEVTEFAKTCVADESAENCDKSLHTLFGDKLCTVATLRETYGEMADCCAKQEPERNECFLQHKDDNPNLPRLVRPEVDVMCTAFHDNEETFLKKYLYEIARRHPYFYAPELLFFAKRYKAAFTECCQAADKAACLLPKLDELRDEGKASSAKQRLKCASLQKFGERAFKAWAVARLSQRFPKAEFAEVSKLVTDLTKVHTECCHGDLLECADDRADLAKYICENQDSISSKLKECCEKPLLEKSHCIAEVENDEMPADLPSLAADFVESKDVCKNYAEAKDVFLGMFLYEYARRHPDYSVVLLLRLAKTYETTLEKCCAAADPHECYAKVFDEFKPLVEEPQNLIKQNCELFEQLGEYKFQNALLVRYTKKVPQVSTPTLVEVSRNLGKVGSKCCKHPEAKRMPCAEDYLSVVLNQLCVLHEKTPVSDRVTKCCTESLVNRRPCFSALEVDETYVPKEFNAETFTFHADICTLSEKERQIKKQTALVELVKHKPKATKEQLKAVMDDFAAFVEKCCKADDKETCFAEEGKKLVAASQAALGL

Molecule: CN(C)C(=O)c1cc2cnc(Nc3ccc(N4CCN(C(=O)CCCCCN5/C(=C/C=C6\CCCC(/C=C/C7=[N+](CCCCCC(=O)[O-])c8ccccc8C7(C)C)=C6Cl)C(C)(C)c6ccccc65)CC4)cn3)nc2n1C1CCCC1 [Compound 1c]
cytotoxicity compared with parent dye, parent kinase inhibitor (and their mixture) [1]: more found to be toxic than individual 1, c or a combination of 1+c; also recorded: significantly more toxic than the parent dye, the parent kinase inhibitor, or a mixture of the dye and kinase inhibitor

Molecule: CC(Oc1cc(-c2cnn(C3CCN(C(=O)CCCCCN4C(=CC=C5CCCC(C=CC6=[N+](CCCCCC(=O)[O-])c7ccccc7C6(C)C)=C5Cl)C(C)(C)c5ccccc54)CC3)c2)cnc1N)c1c(Cl)ccc(F)c1Cl (stereo not shown) [Compound 1d]
cytotoxicity compared with parent dye, parent kinase inhibitor (and their mixture) [1]: more found to be toxic than individual 1, d or a combination of 1+d; also recorded: significantly more toxic than the parent dye, the parent kinase inhibitor, or a mixture of the dye and kinase inhibitor

Molecule: CC(=O)c1c(C)c2cnc(Nc3ccc(N4CCN(C(=O)CCCCCN5C(=CC=C6CCCC(C=CC7=[N+](CCCCS(=O)(=O)[O-])c8ccccc8C7(C)C)=C6Cl)C(C)(C)c6ccccc65)CC4)cn3)nc2n(C2CCCC2)c1=O [Compound 3b]
cytotoxicity compared with parent dye, parent kinase inhibitor (and their mixture) (U87-MG cells): more toxic than b or 3

covalent binding / reaction with HSA (HSA): did not bind | covalent binding / reaction with HSA (HSA; listed as 1-H): do not react with HSA
Molecule: CC1(C)C(/C=C/C2=CC(=C/C=C3/N(CCCCCC(=O)O)c4ccccc4C3(C)C)/CCC2)=[N+](CCCCCC(=O)[O-])c2ccccc21 [Compound 4]

covalent binding / reaction with HSA (HSA): did not bind | covalent binding / reaction with HSA (HSA; listed as 1-Me): do not react with HSA
Molecule: CC1=C(/C=C/C2=[N+](CCCCCC(=O)[O-])c3ccccc3C2(C)C)CCC/C1=C\C=C1\N(CCCCCC(=O)O)c2ccccc2C1(C)C [Compound 5]

covalent binding / reaction with HSA (HSA; listed as 1-Ph): do not react with HSA
Molecule: CC1(C)C(/C=C/C2=C(c3ccccc3)C(=C/C=C3/N(CCCCCC(=O)O)c4ccccc4C3(C)C)/CCC2)=[N+](CCCCCC(=O)[O-])c2ccccc21 [Compound 6]

Molecule: Indocyanine green [ICG]
localization after time (h) 0.5 ([2]; 0.5 h): golgi and ER | localization after time (h) 24 ([2]; 24 h): golgi and lysosome
